Data published in patent EP4309654A1, “INDOLE-3-CARBINOL IN COMBINATION WITH IBRUTINIB FOR THE TREATMENT OF B LYMPHOID NEOPLASMS” (Consejo Superior de Investigaciones Científicas (CSIC), priority 2022, dated 2024).

What was measured:
[1] = in blood; cited from earlier work
[2] = tested on: different types of solid tumours; test: Viability of different types of solid tumour cell lines; assay type: cell-based; conditions: HCC1954, A375P, HCT116, HT1080, pancreatic cancer lines 185 and 354
Excerpt: We studied the effect of I3C alone or in combination with different drugs commonly used in the clinic for the targeted treatment of solid tumours of various origins. We used the ductal breast cancer line HCC1954 and the drug Lapatinib, the melanoma line A375P and the drug Vemurafenib, the colorectal cancer line HCT116 and the drug 5-fluorouracil, the sarcoma line HT1080 and the experimental drug ADC, and two primary pancreatic cancer lines 185 and 354 and the drug Abraxane. Results obtained (Fig. 11) shown that I3C has no effect on different types of solid tumours.

For `OCc1c[nH]c2ccccc12` [I3C, (1H-indol-3-yl)methanol], the bioavailability [1] is listed as 22 µM and the “effect on solid tumours (viability)” value [2] is listed as “no effect”.
